Data reported in ChEMBL document CHEMBL4251629, “BODIPYs to the rescue: Potential applications in photodynamic inactivation” (2018).

Key:
Escherichia coli [1] = test: Photodynamic antibacterial activity against ROS-induced stressed Escherichia coli ATCC 25922 assessed as log reduction in viable cells at 10 uM preincubated for 30 mins followed by 3.6 J/cm2 irradiation for 1 hr mins by fluorescence microscopy; type: functional
Candida albicans [2] = test: Photodynamic antibacterial activity against Candida albicans PC31 assessed as log reduction in viable cells at 5 uM preincubated for 30 mins followed by immediate irradiation at 126 J/cm2 in presence of 50 mM KI by fluorescence microscopy; type: functional
Staphylococcus aureus [3] = test: Photodynamic antibacterial activity against Staphylococcus aureus ATCC 25923 assessed as log reduction in viable cells at 1 uM preincubated for 30 mins followed by immediate irradiation at 21 J/cm2 in presence of 50 mM KI by fluorescence microscopy; type: functional
Escherichia coli [4] = test: Photodynamic antibacterial activity against Escherichia coli EC7 assessed as log reduction in viable cells at 5 uM preincubated for 30 mins followed by immediate irradiation at 63 J/cm2 in presence of 50 mM KI by fluorescence microscopy; type: functional
Nakaseomyces glabratus = test: Photodynamic antifungal activity against Candida glabrata ATCC 15545 assessed as log reduction in viable cells at 1 uM in presence of 118 J/cm2 irradiation; type: functional
Pseudomonas aeruginosa = test: Photodynamic antibacterial activity against Pseudomonas aeruginosa PAO1 assessed as log reduction in viable cells at 2.5 uM preincubated for 30 mins followed by 171 J/cm'2 irradiation for 1 hr by confocal laser scanning microscopy; type: functional
[5] = tested on: Mycolicibacterium smegmatis; test: Photodynamic antibacterial activity against Mycobacterium smegmatis MC2 155 assessed as log reduction in viable cells at 0.5 uM in presence of 118 J/cm2 irradiation; type: functional, str. MC2 155
Human adenovirus 5 = test: Photodynamic antiviral activity against Human adenovirus 5 infected in African green monkey Vero cells assessed as log reduction in viable cells at 5 uM in presence of 118 J/cm2 irradiation; type: functional
Candida albicans [6] = test: Photodynamic antifungal activity against Candida albicans ATCC 90028 assessed as log reduction in viable cells at 1 uM in presence of 118 J/cm2 irradiation; type: functional
Cryptococcus neoformans = test: Photodynamic antifungal activity against Cryptococcus neoformans ATCC 6453 assessed as log reduction in viable cells at 0.5 uM in presence of 118 J/cm2 irradiation; type: functional
[7] = tested on: Vesicular stomatitis virus; test: Photodynamic antiviral activity against vesicular stomatitis virus NJ infected in African green monkey Vero cells assessed as log reduction in viable cells at 0.5 uM in presence of 118 J/cm2 irradiation; type: functional, Vesicular stomatitis New Jersey virus
dengue virus type 1 = test: Photodynamic antiviral activity against Dengue virus 1 infected in African green monkey Vero cells assessed as log reduction in viable cells at 0.1 uM in presence of 118 J/cm2 irradiation; type: functional
Escherichia coli [8] = test: Photodynamic antibacterial activity against ROS-induced stressed Escherichia coli ATCC 25922 assessed as log reduction in viable cells at 10 uM preincubated for 1 hr followed by 9.36 J/cm2 irradiation for 2 hrs mins by fluorescence microscopy; type: functional
Klebsiella pneumoniae = test: Photodynamic antibacterial activity against Klebsiella pneumoniae subsp. pneumoniae ATCC 33495 assessed as log reduction in viable cells at 10 uM preincubated for 20 mins followed by 180 J/cm2 irradiation for 60 mins by fluorescence microscopy; type: functional
Staphylococcus aureus [9] = test: Photodynamic antibacterial activity against Staphylococcus aureus NRS11 assessed as log reduction in viable cells at 10 uM preincubated for 20 mins followed by 180 J/cm2 irradiation for 60 mins by fluorescence microscopy; type: functional
Escherichia coli [10] = test: Photodynamic antibacterial activity against Escherichia coli DH5alpha assessed as log reduction in viable cells 10 uM preincubated for 20 mins followed by 180 J/cm2 irradiation for 60 mins by fluorescence microscopy; type: functional, DH5[alpha]
Bacillus thuringiensis = test: Photodynamic antibacterial activity against Bacillus thuringiensis NRS 1124 ATCC 19268 assessed as log reduction in viable cells at 10 uM preincubated for 20 mins followed by 180 J/cm2 irradiation for 60 mins by fluorescence microscopy; type: functional

CC(=O)OCC1c2c(C)c(Br)c(C)n2[B-](F)(F)[N+]2=C(C)C(Br)=C(C)C12 (configuration not stated) was tested, and the “log(activity)” value (Escherichia coli [1]) was 5.5.
For CC1=CC(C)=[N+]2C1C(c1ccc(OCCC[N+](C)(C)C)cc1)c1c(C)cc(C)n1[B-]2(F)F (configuration not stated), the “log(activity)” value (Candida albicans [2]) was 3.5, the “log(activity)” value (Staphylococcus aureus [3]) was 4.5 and the “log(activity)” value (Escherichia coli [4]) was 6.5.
For CC1=C(I)C(C)=[N+]2C1C(c1cc[n+](C)cc1)c1c(C)c(I)c(C)n1[B-]2(F)F (configuration not stated), the “log(activity)” value (Nakaseomyces glabratus) was 3, the “log(activity)” value (Pseudomonas aeruginosa) was 7 and the “log(activity)” value [5] was 3. For the same compound, the “log(activity)” value (Human adenovirus 5) was 2, the “log(activity)” value (Candida albicans [6]) was 5 and the “log(activity)” value (Cryptococcus neoformans) was 5. The “log(activity)” value [7] was 5 and the “log(activity)” value (dengue virus type 1) was 6.
For CC(=O)OCC1c2c(C)c(I)c(C)n2[B-](F)(F)[N+]2=C(C)C(I)=C(C)C12 (configuration not stated), the “log(activity)” value (Escherichia coli [1]) was 5.5.
For CC1=C(Br)C(C)=[N+]2C1C(CC1(C)CCc3c(C)c(O)c(C)c(C)c3O1)c1c(C)c(Br)c(C)n1[B-]2(F)F (configuration not stated), the “log(activity)” value (Escherichia coli [8]) was 5.5.
For CC1=C(C)C2(OO)OC(C)(CC3c4c(C)c(Br)c(C)n4[B-](F)(F)[N+]4=C(C)C(Br)=C(C)C34)CCC2=C(C)C1=O (configuration not stated), the “log(activity)” value (Escherichia coli [8]) was 5.5.
For CC1=C(I)C(C)=[N+]2C1C(c1cc(CN(Cc3ccccn3)Cc3ccccn3)cc(CN(Cc3ccccn3)Cc3ccccn3)c1)c1c(C)c(I)c(C)n1[B-]2(F)F (configuration not stated), the “log(activity)” value (Klebsiella pneumoniae) was 2.2, the “log(activity)” value (Staphylococcus aureus [9]) was 4.5 and the “log(activity)” value (Escherichia coli [10]) was 3.5. The “log(activity)” value (Bacillus thuringiensis) was 4.5.
For CC1=CC(C)=[N+]2C1C(c1ccc([N+](C)(C)C)cc1)c1c(C)cc(C)n1[B-]2(F)F (configuration not stated), the “log(activity)” value (Candida albicans [2]) was 5.5, the “log(activity)” value (Staphylococcus aureus [3]) was 5 and the “log(activity)” value (Escherichia coli [4]) was 3.5.
